ChEMBL document CHEMBL5518237, “Design of Novel 2-Phenylquinazolin-4-amines as Selective CYP1B1 Inhibitors for Overcoming Paclitaxel Resistance in A549 Cells” (J Med Chem, 2024)

Assays:
[1] = molecular target: T1, CYP1B1 (Homo sapiens, UniProt Q16678); assay: Inhibition of human recombinant CYP1B1 using 7-ethoxyresorufin as substrate at 0.01 uM preincubated with enzyme for 5 mins followed by fluorescent substrate and NADPH addition and measured after 35 mins by EROD assay; assay type: ADME; details: recombinant CYP1B1, probe 7-ethoxyresorufin, time 40 min
T1 sequence (Q16678 whole entry): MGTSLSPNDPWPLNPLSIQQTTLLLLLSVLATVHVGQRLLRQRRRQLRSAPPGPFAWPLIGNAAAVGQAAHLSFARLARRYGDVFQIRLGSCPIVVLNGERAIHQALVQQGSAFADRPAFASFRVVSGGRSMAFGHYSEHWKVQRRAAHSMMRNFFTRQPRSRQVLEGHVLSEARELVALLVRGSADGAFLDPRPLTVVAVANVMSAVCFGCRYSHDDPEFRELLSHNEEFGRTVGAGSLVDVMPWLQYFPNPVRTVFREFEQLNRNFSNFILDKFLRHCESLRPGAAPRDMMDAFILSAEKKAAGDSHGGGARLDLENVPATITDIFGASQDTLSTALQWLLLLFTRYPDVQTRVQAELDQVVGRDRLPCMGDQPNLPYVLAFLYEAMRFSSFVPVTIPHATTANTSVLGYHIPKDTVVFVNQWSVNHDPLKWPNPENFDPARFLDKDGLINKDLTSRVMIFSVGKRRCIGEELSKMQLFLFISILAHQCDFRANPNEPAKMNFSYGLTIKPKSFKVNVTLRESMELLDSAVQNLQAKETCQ

[2] = molecular target: T1, CYP1B1; assay: Inhibition of human recombinant CYP1B1 using 7-ethoxyresorufin as substrate at 1 uM preincubated with enzyme for 5 mins followed by fluorescent substrate and NADPH addition and measured after 35 mins by EROD assay; assay type: ADME; details: recombinant CYP1B1, probe 7-ethoxyresorufin, time 40 min

inhibition at 35 min, 0.01 µM [1] [%] | inhibition at 35 min, 1 µM [2] [%] | SMILES
-1.45 | 78.9 | Nc1nc(-c2cccc(F)c2)nc2ccccc12
69.4 | 95.4 | Nc1nc(-c2ccc(Cl)cc2)nc2c1ccc1ccccc12
51.8 | 93.8 | Ic1ccc(-c2nc(N3CCOCC3)c3ccccc3n2)cc1
28.4 | 1.98 | COC(=O)c1cccc(-c2nc(N)c3ccccc3n2)c1
6.15 | 93.5 | Nc1nc(-c2ccccc2)nc2c1ccc1ccccc12
65.4 | 95.5 | CN(C)c1nc(-c2ccc(I)cc2)nc2ccccc12
13.2 | 55.4 | Nc1nc(-c2cccc(Br)c2)nc2ccccc12
12.8 | 73.4 | Nc1nc(-c2ccc(Br)nc2)nc2ccccc12
32.8 | 95.3 | CC(C)Nc1nc(-c2ccc(I)cc2)nc2ccccc12
7.25 | 60.4 | Ic1ccc(-c2nc(Nc3ccccc3)c3ccccc3n2)cc1
69.5 | 94.5 | O=c1[nH]c(-c2ccc(Br)cc2)nc2ccccc12
11 | 95 | Nc1nc(-c2ccc(F)cc2)nc2c1ccc1ccccc12
20.2 | -2.32 | Nc1nc(-c2ccc(C(=O)O)cc2)nc2ccccc12
74.4 | 96 | C#CCOc1ccc(-c2nc(N)c3ccccc3n2)cc1
10.5 | 94.5 | Nc1nc(-c2cccc(F)c2)nc2c1ccc1ccccc12
-13.1 | 75.3 | Cc1ccc(-c2nc(N)c3ccc4ccccc4c3n2)cc1
39.8 | 94.9 | Ic1ccc(-c2nc(N3CCCC3)c3ccccc3n2)cc1

inhibition at 35 min, 0.01 µM [1] [%] | inhibition at 35 min, 1 µM [2] [%] | SMILES
10.1 | 91.7 | COc1cccc(-c2nc(N)c3ccccc3n2)c1
-13.5 | 65.5 | Nc1nc(-c2ccccc2)nc2ccccc12
44.2 | 95.2 | COc1ccc(-c2nc(N)c3ccc4ccccc4c3n2)cc1
1.94 | 27.6 | Nc1nc(-c2ccc(Oc3ccc(Cl)cc3Cl)cc2)nc2ccccc12
6.96 | 68 | Nc1nc(-c2ccc(Cl)nc2)nc2ccccc12
21.8 | 86.4 | CCCCNc1nc(-c2ccc(I)cc2)nc2ccccc12
13.8 | 91.1 | Ic1ccc(-c2nc(N3CCCCC3)c3ccccc3n2)cc1
-12.8 | 93.8 | Nc1nc(-c2cccc(Br)c2)nc2c1ccc1ccccc12
3.73 | 80.7 | Nc1nc(-c2ccc(F)cc2)nc2ccccc12
14 | 94.2 | Nc1nc(-c2cccc(Cl)c2)nc2c1ccc1ccccc12
15.9 | 92.7 | COC(=O)c1ccc(-c2nc(N)c3ccccc3n2)cc1
3.87 | 94.8 | COc1cccc(-c2nc(N)c3ccc4ccccc4c3n2)c1
2 | 91.2 | Ic1ccc(-c2nc(NCc3ccccc3)c3ccccc3n2)cc1
63.1 | 88.5 | Nc1nc(-c2ccc(I)cc2)nc2c1ccc1ccccc12
-6.11 | 39.5 | NCCNc1nc(-c2ccc(I)cc2)nc2ccccc12
68.4 | 96 | Nc1nc(-c2ccc(Cl)cc2)nc2ccccc12
66.4 | 96.7 | Nc1nc(-c2cccc(I)c2)nc2ccccc12
